{"source": "patent US20120142750A1", "about": "“INDOLEAMINE 2,3-DIOXYGENASE PATHWAYS IN THE GENERATION OF REGULATORY T CELLS” (Regents of the University of Minnesota, priority 2005, published 2012)", "origin": "cited, not measured here", "molecular_target": "IDO (Homo sapiens, UniProt P14902)", "sequence (P14902 whole entry)": "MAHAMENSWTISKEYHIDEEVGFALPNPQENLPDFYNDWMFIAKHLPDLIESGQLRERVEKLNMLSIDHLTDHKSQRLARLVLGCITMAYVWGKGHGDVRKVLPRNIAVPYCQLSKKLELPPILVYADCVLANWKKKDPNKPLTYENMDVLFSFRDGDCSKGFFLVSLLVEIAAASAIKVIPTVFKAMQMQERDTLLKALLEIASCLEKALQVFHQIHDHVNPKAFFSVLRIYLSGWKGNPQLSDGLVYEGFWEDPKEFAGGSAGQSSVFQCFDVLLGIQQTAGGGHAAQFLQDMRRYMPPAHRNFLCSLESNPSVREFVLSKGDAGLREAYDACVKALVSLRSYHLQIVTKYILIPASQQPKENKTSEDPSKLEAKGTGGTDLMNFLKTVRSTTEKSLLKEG", "conditions": "approximate literature value; cited from earlier work", "data": [{"compound": "O=C1C2=C(Nc3cc([N+](=O)[O-])ccc3N2)OC1c1ccc(C2OC3=C(Nc4ccc([N+](=O)[O-])cc4N3)C2=O)cc1", "note": "(stereo not shown) [Inhibitor V]", "values": [{"measurement": "EC50", "result": "~1000", "unit": "nM"}]}]}
